Results as given in patent US12121525B2, “Methods for treating GI syndrome and graft versus host disease” (Sloan Kettering Institute for Cancer Research, priority 2007, dated 2024).

How the values were obtained:
[1] = test system: C57BL/6 splenocytes; assay: MLR-primed CTL-induced splenocyte lysis (51Cr release); assay type: cell-based, mouse; conditions: 500 nM
Protocol: To show the generic role of target cell ASMase in T cell-induced lysis, we used two standardized assays for T cell function; MLR-primed CTL-induced splenocyte lysis (FIG. 17) and in vitro activation-induced cell death (AICD) of T cells (FIG. 18). The role of target cell ASMase was assessed in an in vitro activated MLR, in which C57BL/6 splenocyte target cells of asmase^+/+ or asmase^−/− genotype were stimulated for 48 hrs with mitogen, washed and chromium labeled. These cells were then coincubated with effector Balb/c splenocytes activated for 5 days by culture with irradiated C57BL/6 splenocytes. Chromium release was quantified and the % lysis was calculated. […] Washed splenocytes cells were coincubated with increasing ratios of activated effector Balb/c T cells, and ^51Cr release was quantified 6 hour thereafter. […]
To evaluate a potential generic role for target cell ASMase in platform generation in T cell-induced lysis, we tested two standardized assays for T cell-mediated cytolysis, MLR-primed CTL-induced splenocyte lysis, and in vitro AICD of T cells. […] Furthermore, MLR-primed CTLs induced 43.2±6.5% asmase^+/+ splenocyte lysis at an effector:target ratio of 50:1 (FIG. 19B), attenuated to 7.3±2.5% lysis in asmase^−/− target cells, as quantified by ^51Cr-release assay. […]

[2] = test system: C57BL/6 hepatocytes; assay type: cell-based
Protocol: FIGS. 16A-16F. In vivo activated allogeneic CTLs require target hepatocyte ASMase for efficient killing ex vivo. Hepatocytes, isolated as described in Example 1, were coincubated with splenic T cells harvested from lethally-irradiated wild type C57BL/6 recipients 10-14 days following transplantation of LP BM+T cells. FIG. 16A: 2×10^6 GvH-activated CTLs were coincubated with 0.5×10^6 wild type C57BL/6 or B6.MRL.1pr (FasR^−/−) hepatocytes (left panel) in complete medium for 16 hr. […] Apoptosis was quantified following fixation by nuclear bisbenzimide staining. FIG. 16B: asmase^−/− hepatocytes are resistant to apoptosis induced by GvH-activated CTLs. CTL coincubation was performed as in FIG. 16A and apoptosis was quantified 16 hr thereafter. FIG. 16C: Representative images of asmase^+/+ (top left panel) and asmase^−/− (bottom left panel) C57BL/6 hepatocytes following 10 min coincubation in suspension with 2×10^6 GvH-activated T cells. Hepatocytes were fixed and stained with DAPI and Cy-3-labelled anti-ceramide mAb as described in Example 1. Arrows indicate ceramide-rich platform generation on the outer leaflet of the plasma membrane. […] FIG. 16D: Quantification of ceramide-rich platforms in asmase^+/+ and asmase^−/− hepatocytes following incubation with 2×10^6 GvH-activated CTLs. […] Apoptosis was quantified as in FIG. 16A. […] 0.5×10^6 wild type hepatocytes, preincubated with 50 μg/mL nystatin for 30 min and resuspended in RPMI containing 1% lipid-free FBS, were coincubated with 2×10^6 GvH-activated T cells and apoptosis was quantified as in FIG. 16A. […]
To assess whether ceramide-mediated raft clustering into membrane platforms is an essential component of cytolytic T cell (CTL)-induced apoptosis of hepatocytes, we blocked raft clustering pharmacologically and examined the impact on alloactivated CTL-induced hepatocyte apoptosis in vitro. […] Co-incubation induced increased hepatocyte apoptosis from a baseline of 4.7±0.7% to 33.8±1.9% by 16 hr, as detected by nuclear morphologic changes (FIG. 16A). […]

[3] = test system: splenic T cells; assay: Platform generation in T cells after AICD induction; conditions: 500 nM; not shown

For `CCCCCCCCCCCCC/C=C/[C@@H](O)[C@H](CO)NC(=O)CCCCCCCCCCCCCCC` [C16-ceramide], the “CTL-induced lysis of asmase−/− target splenocytes” value [1] was “restored”, the “rescue of CTL-induced apoptosis in nystatin-treated hepatocytes” value [2] was “unable to overcome cholesterol chelation” and the “platform generation in asmase−/− T cells stimulated to undergo AICD” value [3] was “completely restored”.
